From ChEMBL document CHEMBL1201862, “PubChem BioAssay data set” (2004) come the findings set out here.

Holding throughout (experiment): NCI-60 cell line screen, 48 h
For experiment [1], the system named is A549.
Experiment [2] has as its system ACHN.
Experiment [3] concerns BT-549.
Experiment [4] has as its system CAKI-1.
In experiment [5] the test system is EKVX.
In experiment [6] the test system is Hs-578T.
The subject of experiment [7] is KM12.
The subject of experiment [8] is M14.
Experiment [9] deals with MDA-MB-231.
Experiment [10] has as its system MOLT-4.
Experiment [11] deals with NCI-H226.
The subject of experiment [12] is OVCAR-5.
In experiment [13] the test system is RPMI-8226.
The test system of experiment [14] is SF-539.
Experiment [15] deals with SK-MEL-28.
Experiment [16] concerns SK-OV-3.
Experiment [17] concerns SNB-19.
Experiment [18] has as its system T47D.
In experiment [19] the test system is UO-31.
The subject of experiment [20] is HCC 2998.

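All cell lines were grown in 96-well plates and treated with compound for 48 hours. GI50 marks 50% less growth.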 Activity calls are given as the source filed them. Rule as the data show it: active = GI50 up to about 1.1 µM and inactive = higher.

Take `O=C(O)CCC(=O)c1ccc2sc3ccccc3c2c1`: the GI50 in experiment [1], in experiment [2], in [3], in [4], in [5] and in experiment [6] was > 100 µM (inactive) throughout. Moreover, the GI50 in experiment [7], in experiment [8], in experiment [9], in experiment [10], in experiment [11] and in experiment [12] was > 100 µM (inactive) in each case. For the same molecule, the GI50 in experiment [13], in [14], in experiment [15], in experiment [16], in experiment [17] and in experiment [18] was > 100 µM (inactive) throughout. For the same molecule, in experiment [19], the GI50 was > 100 µM (inactive).
`S=C1SCN(C2CCCCCCCCCCC2)CN1C1CCCCCCCCCCC1`: the GI50 in experiment [1], in experiment [2], in [3], in experiment [4], in experiment [5] and in experiment [6] was > 100 µM (inactive) each time. Further, the GI50 in experiment [7] was > 100 µM (inactive); in experiment [8], > 100 µM (inactive); in experiment [9], > 100 µM (inactive); in [10], 46.1 µM (inactive); in [11], > 100 µM (inactive); in experiment [12], > 100 µM (inactive). The GI50 in experiment [13] is 47.5 µM (inactive); in [14], > 100 µM (inactive); in experiment [15] it was > 100 µM (inactive); in experiment [16], > 100 µM (inactive); in experiment [17], > 100 µM (inactive); in experiment [18], > 100 µM (inactive). The GI50 in [19] is > 100 µM (inactive).
On to `CC(C)Oc1cc(O)c2c(c1)OCC=C2CCC(=O)O`, for which the GI50 was 28.1 µM (inactive) in experiment [1]; 22.1 µM (inactive) in [2]; 31.3 µM (inactive) in experiment [3]; 37.2 µM (inactive) in [4]; 17.3 µM (inactive) in [5]; 42.2 µM (inactive) in [6]. For the same molecule, the GI50 in experiment [7] is 31.5 µM (inactive); in experiment [8], 25.9 µM (inactive); in experiment [9], 36.8 µM (inactive); in [10], 23.8 µM (inactive); in [11], 15.5 µM (inactive); in experiment [12], 31.8 µM (inactive). Besides, the GI50 in experiment [13] was 24.4 µM (inactive); in [15] it was 36 µM (inactive); in experiment [16], 49 µM (inactive); in experiment [17], 38 µM (inactive); in experiment [18] it was 39.3 µM (inactive); in experiment [19], 24.1 µM (inactive).
With `Cn1c(S)nnc1-c1csc(-c2ccc(Cl)cc2)n1`, the GI50 in experiment [1] was 32.6 µM (inactive); in experiment [2], 18.7 µM (inactive); in [3], 22.1 µM (inactive); in [4], 23.4 µM (inactive); in [5] it was 30.7 µM (inactive); in experiment [20] it was > 100 µM (inactive). The GI50 in [6] was 29.7 µM (inactive); in [7], > 100 µM (inactive); in [8], 33.1 µM (inactive); in experiment [9], 24 µM (inactive); in experiment [10], 55.8 µM (inactive); in experiment [11], 23.1 µM (inactive). Moreover, the GI50 is 34.4 µM (inactive) in experiment [12]; 22.2 µM (inactive) in experiment [14]; 44.6 µM (inactive) in experiment [15]; 17.6 µM (inactive) in experiment [16]; 17.5 µM (inactive) in [17]; 35.3 µM (inactive) in experiment [18]. Besides, in experiment [19], the GI50 is 22.5 µM (inactive).
`C(=C/CCCN1O[C@@H](CCCCCCCCc2cccnc2)[C@H]2CCC[C@H]21)/CCCCCCCCCc1cccnc1`: the GI50 in experiment [1] was 14.1 µM (inactive); in experiment [3], 33 µM (inactive); in experiment [4] it was 13.5 µM (inactive); in [5], 4.48 µM (inactive); in experiment [6] it was 37.8 µM (inactive); in experiment [7], 18.5 µM (inactive). In addition, the GI50 in experiment [8] was 24 µM (inactive); in experiment [9], 17.9 µM (inactive); in experiment [10], 21.7 µM (inactive); in experiment [11], 16.4 µM (inactive); in experiment [12] it was 20 µM (inactive); in experiment [13] it was 7.96 µM (inactive). The GI50 in experiment [14] was 18.1 µM (inactive); in [15], 21.3 µM (inactive); in experiment [16], 19 µM (inactive); in experiment [17] it was 25.6 µM (inactive); in experiment [18] it was 20.7 µM (inactive); in [19], 19.4 µM (inactive).
Turning to `C=C1C(=O)O[C@H]2C[C@@H]1[C@@H](O)[C@H](O)[C@@H](C)CCCC(C)=CCC[C@@]2(C)O`, the GI50 in experiment [1] is 35.1 µM (inactive); in experiment [2], 14.6 µM (inactive); in experiment [3] it was 10 µM (inactive); in experiment [4], 5.06 µM (inactive); in experiment [5], 54 µM (inactive); in [20], 25.3 µM (inactive). Further, the GI50 in experiment [6] is 18 µM (inactive); in [7], 30.9 µM (inactive); in experiment [8], 13.6 µM (inactive); in [9], 28 µM (inactive); in experiment [10], 4.84 µM (inactive); in experiment [12] it was 19.1 µM (inactive). Also, the GI50 in [13] is 5.05 µM (inactive); in experiment [14] it was 15.2 µM (inactive); in [15], 25.6 µM (inactive); in experiment [16] it was 62.5 µM (inactive); in [17], > 100 µM (inactive); in [18] it was 20.2 µM (inactive). The GI50 in experiment [19] is 14.8 µM (inactive).
In the case of `COc1cc(S(=O)(=O)Nc2ccc(-c3csc(/N=C\c4ccccc4O)n3)cc2)ccc1Cl`, the GI50 in [1] was 63.1 µM (inactive); in [2], 62.2 µM (inactive); in [3], 43.7 µM (inactive); in [4], > 100 µM (inactive); in experiment [5], 29.8 µM (inactive); in experiment [6] it was > 100 µM (inactive). The GI50 in experiment [7] is 38.1 µM (inactive); in experiment [8], 59 µM (inactive); in [9] it was 53.6 µM (inactive); in [10] it was 15.8 µM (inactive); in experiment [11], > 100 µM (inactive); in [12], > 100 µM (inactive). Also, the GI50 in [13] is 29.6 µM (inactive); in experiment [14], 55.7 µM (inactive); in [15] it was 39.3 µM (inactive); in experiment [16], > 100 µM (inactive); in [17], 39.3 µM (inactive); in experiment [18] it was 16.9 µM (inactive). Moreover, the GI50 in experiment [19] was 31 µM (inactive).
On to `CCCC(=O)OC1CC(n2cc(F)c(=O)[nH]c2=O)OC1CO` (stereo unspecified), for which the GI50 in [1] was 0.0538 µM (active); in experiment [2], 0.0506 µM (active); in [3], 0.726 µM (active); in [4], 0.141 µM (active); in experiment [5], > 10 µM (inactive); in [20], 0.0202 µM (active). For the same molecule, the GI50 is > 3.19 µM (inactive) in experiment [6]; > 10 µM (inactive) in [7]; 0.33 µM (active) in [8]; > 8.95 µM (inactive) in [9]; > 6.89 µM (inactive) in experiment [10]; > 10 µM (inactive) in experiment [11]. The GI50 in experiment [12] is > 10 µM (inactive); in experiment [14], 0.00859 µM (active); in experiment [15], > 7.21 µM (inactive); in experiment [16], 4.08 µM (inactive); in experiment [18], > 10 µM (inactive); in [19], 0.362 µM (active).
As for `O=C(O)CCC(N/N=N/c1ccc(-c2nc3ccccc3[nH]2)cc1)C(=O)O` (stereo unspecified), the GI50 in [1] was 78.7 µM (inactive); in experiment [2], 28.2 µM (inactive); in experiment [3] it was 23.9 µM (inactive); in experiment [4] it was 61.4 µM (inactive); in [5], > 100 µM (inactive); in experiment [6], 44.4 µM (inactive). Moreover, the GI50 in experiment [7] is 37.4 µM (inactive); in experiment [8] it was 54.1 µM (inactive); in experiment [9] it was > 100 µM (inactive); in experiment [10] it was 31.6 µM (inactive); in experiment [11] it was > 100 µM (inactive); in experiment [12], > 100 µM (inactive). The GI50 in experiment [13] was 17.9 µM (inactive); in experiment [14], > 100 µM (inactive); in [15], > 100 µM (inactive); in [16], 59.7 µM (inactive); in [17] it was > 100 µM (inactive); in [18], 30.7 µM (inactive). Moreover, in experiment [19], the GI50 is 13.6 µM (inactive).
Turning to `C1=CC(=[N+]2N=C(c3ccccc3)CC2c2ccccc2)C=CC1=C1SC(c2ccccc2)(c2ccccc2)c2ccccc21.[O-][Cl+3]([O-])([O-])[O-]` (stereo unspecified), the GI50 is > 100 µM (inactive) in experiment [1]; > 100 µM (inactive) in [2]; 78.5 µM (inactive) in experiment [3]; > 100 µM (inactive) in experiment [5]; > 100 µM (inactive) in experiment [20]; > 100 µM (inactive) in experiment [6]. Besides, the GI50 in experiment [7] was > 100 µM (inactive); in experiment [8], 60.8 µM (inactive); in experiment [9] it was > 100 µM (inactive); in experiment [10], > 100 µM (inactive); in experiment [11] it was > 100 µM (inactive); in [12] it was > 100 µM (inactive). Besides, the GI50 was > 100 µM (inactive) in experiment [14]; > 100 µM (inactive) in experiment [15]; > 100 µM (inactive) in experiment [16]; 79.4 µM (inactive) in experiment [17]; > 100 µM (inactive) in experiment [18]; > 100 µM (inactive) in experiment [19].
